`Fc1c(I)c(F)c(I)c(F)c1I` showed a solubility (mole fraction) (in 1,2-dichloroethane, 290.15 K) of 2.33e-05, a solubility (mole fraction) (in 1,2-dichloroethane, 295.15 K) of 4.22e-05 and a solubility (mole fraction) (in 1,2-dichloroethane, 299.15 K) of 6.13e-05. The solubility (mole fraction) (in 1,2-dichloroethane, 302.15 K) was 8.17e-05, the solubility (mole fraction) (in 1,2-dichloroethane, 305.15 K) was 0.000106 and the solubility (mole fraction) (in 1,2-dichloroethane, 308.15 K) was 0.000131. For the same compound, the solubility (mole fraction) (in 1,2-dichloroethane, 311.15 K) was 0.000153, the solubility (mole fraction) (in 1,2-dichloroethane, 314.15 K) was 0.000181 and the solubility (mole fraction) (in 1,2-dichloroethane, 317.15 K) was 0.000207. The solubility (mole fraction) (in 1,2-dichloroethane, 320.15 K) was 0.000224, the solubility (mole fraction) (in 1,2-dichloroethane, 325.15 K) was 0.000242 and the solubility (mole fraction) (in 1,2-dichloroethane, 330.15 K) was 0.000263. The solubility (mole fraction) (in 1,4-dioxane, 290.15 K) was 0.00028, the solubility (mole fraction) (in 1,4-dioxane, 295.15 K) was 0.000334 and the solubility (mole fraction) (in 1,4-dioxane, 299.15 K) was 0.000387. The solubility (mole fraction) (in 1,4-dioxane, 302.15 K) was 0.000413, the solubility (mole fraction) (in 1,4-dioxane, 305.15 K) was 0.000456 and the solubility (mole fraction) (in 1,4-dioxane, 308.15 K) was 0.000506. It also gave a solubility (mole fraction) (in 1,4-dioxane, 311.15 K) of 0.000553, a solubility (mole fraction) (in 1,4-dioxane, 314.15 K) of 0.000593 and a solubility (mole fraction) (in 1,4-dioxane, 317.15 K) of 0.000641. The solubility (mole fraction) (in 1,4-dioxane, 320.15 K) was 0.000697, the solubility (mole fraction) (in 1,4-dioxane, 325.15 K) was 0.000773 and the solubility (mole fraction) (in 1,4-dioxane, 330.15 K) was 0.00088. It also gave a solubility (mole fraction) (in THF, 290.25 K) of 0.00478, a solubility (mole fraction) (in THF, 295.45 K) of 0.00497 and a solubility (mole fraction) (in THF, 299.85 K) of 0.00511. For the same compound, the solubility (mole fraction) (in THF, 305.15 K) was 0.00534, the solubility (mole fraction) (in THF, 310.25 K) was 0.00555 and the solubility (mole fraction) (in THF, 315.35 K) was 0.00578. The solubility (mole fraction) (in THF, 320.15 K) was 0.00601, the solubility (mole fraction) (in THF, 326.15 K) was 0.0063 and the solubility (mole fraction) (in THF, 330.35 K) was 0.00648. For the same compound, the solubility (mole fraction) (in acetone, 290.15 K) was 2.02e-05, the solubility (mole fraction) (in acetone, 295.15 K) was 3.22e-05 and the solubility (mole fraction) (in acetone, 299.15 K) was 4.55e-05. For the same compound, the solubility (mole fraction) (in acetone, 302.15 K) was 5.89e-05, the solubility (mole fraction) (in acetone, 305.15 K) was 7.48e-05 and the solubility (mole fraction) (in acetone, 308.15 K) was 9.01e-05. For the same compound, the solubility (mole fraction) (in acetone, 311.15 K) was 0.000107, the solubility (mole fraction) (in acetone, 314.15 K) was 0.000127 and the solubility (mole fraction) (in acetone, 317.15 K) was 0.000144. It also gave a solubility (mole fraction) (in acetone, 320.15 K) of 0.000162, a solubility (mole fraction) (in acetone, 325.15 K) of 0.000182 and a solubility (mole fraction) (in acetone, 330.15 K) of 0.000202. For the same compound, the solubility (mole fraction) (in acetonitrile, 290.35 K) was 0.00382, the solubility (mole fraction) (in acetonitrile, 295.85 K) was 0.00415 and the solubility (mole fraction) (in acetonitrile, 301.55 K) was 0.00469. It also gave a solubility (mole fraction) (in acetonitrile, 306.95 K) of 0.00536, a solubility (mole fraction) (in acetonitrile, 310.15 K) of 0.00568 and a solubility (mole fraction) (in acetonitrile, 316.95 K) of 0.00636. It also gave a solubility (mole fraction) (in acetonitrile, 321.55 K) of 0.00722, a solubility (mole fraction) (in acetonitrile, 327.35 K) of 0.00842 and a solubility (mole fraction) (in acetonitrile, 332.15 K) of 0.00917. It also gave a solubility (mole fraction) (in ethanol, 290.15 K) of 0.00057, a solubility (mole fraction) (in ethanol, 295.15 K) of 0.000735 and a solubility (mole fraction) (in ethanol, 299.15 K) of 0.000874. For the same compound, the solubility (mole fraction) (in ethanol, 302.15 K) was 0.000962, the solubility (mole fraction) (in ethanol, 305.15 K) was 0.00108 and the solubility (mole fraction) (in ethanol, 308.15 K) was 0.00119. For the same compound, the solubility (mole fraction) (in ethanol, 311.15 K) was 0.00128, the solubility (mole fraction) (in ethanol, 314.15 K) was 0.00138 and the solubility (mole fraction) (in ethanol, 317.15 K) was 0.00149. It also gave a solubility (mole fraction) (in ethanol, 320.15 K) of 0.0016, a solubility (mole fraction) (in ethanol, 325.15 K) of 0.00174 and a solubility (mole fraction) (in ethanol, 330.15 K) of 0.00193. The solubility (mole fraction) (in ethyl acetate, 290.15 K) was 0.000485, the solubility (mole fraction) (in ethyl acetate, 295.15 K) was 0.000621 and the solubility (mole fraction) (in ethyl acetate, 299.15 K) was 0.000756. For the same compound, the solubility (mole fraction) (in ethyl acetate, 302.15 K) was 0.00086, the solubility (mole fraction) (in ethyl acetate, 305.15 K) was 0.000976 and the solubility (mole fraction) (in ethyl acetate, 308.15 K) was 0.00107. For the same compound, the solubility (mole fraction) (in ethyl acetate, 311.15 K) was 0.00118, the solubility (mole fraction) (in ethyl acetate, 314.15 K) was 0.00128 and the solubility (mole fraction) (in ethyl acetate, 317.15 K) was 0.00136. For the same compound, the solubility (mole fraction) (in ethyl acetate, 320.15 K) was 0.00145, the solubility (mole fraction) (in ethyl acetate, 325.15 K) was 0.00155 and the solubility (mole fraction) (in ethyl acetate, 330.15 K) was 0.00167. It also gave a solubility (mole fraction) (in isopropanol, 291.25 K) of 0.00214, a solubility (mole fraction) (in isopropanol, 296.35 K) of 0.00291 and a solubility (mole fraction) (in isopropanol, 301.45 K) of 0.00369. The solubility (mole fraction) (in isopropanol, 306.45 K) was 0.00432, the solubility (mole fraction) (in isopropanol, 311.45 K) was 0.00523 and the solubility (mole fraction) (in isopropanol, 316.55 K) was 0.00598. For the same compound, the solubility (mole fraction) (in isopropanol, 321.45 K) was 0.00681, the solubility (mole fraction) (in isopropanol, 326.85 K) was 0.00745 and the solubility (mole fraction) (in isopropanol, 331.55 K) was 0.00802. It also gave a solubility (mole fraction) (in methanol, 290.15 K) of 2.24e-05, a solubility (mole fraction) (in methanol, 295.15 K) of 3.71e-05 and a solubility (mole fraction) (in methanol, 299.15 K) of 5.15e-05. It also gave a solubility (mole fraction) (in methanol, 302.15 K) of 6.58e-05, a solubility (mole fraction) (in methanol, 305.15 K) of 8.12e-05 and a solubility (mole fraction) (in methanol, 308.15 K) of 9.61e-05. The solubility (mole fraction) (in methanol, 311.15 K) was 0.00011, the solubility (mole fraction) (in methanol, 314.15 K) was 0.000121 and the solubility (mole fraction) (in methanol, 317.15 K) was 0.000131. The solubility (mole fraction) (in methanol, 320.15 K) was 0.00014, the solubility (mole fraction) (in methanol, 325.15 K) was 0.00015 and the solubility (mole fraction) (in methanol, 330.15 K) was 0.000154. For the same compound, the solubility (mole fraction) (in n-hexane, 289.25 K) was 0.0059, the solubility (mole fraction) (in n-hexane, 293.55 K) was 0.00643 and the solubility (mole fraction) (in n-hexane, 298.85 K) was 0.00732. The solubility (mole fraction) (in n-hexane, 303.85 K) was 0.00818, the solubility (mole fraction) (in n-hexane, 308.95 K) was 0.00908 and the solubility (mole fraction) (in n-hexane, 313.75 K) was 0.0101. The solubility (mole fraction) (in n-hexane, 318.55 K) was 0.0116, the solubility (mole fraction) (in n-hexane, 324.25 K) was 0.0134 and the solubility (mole fraction) (in n-hexane, 329.35 K) was 0.0149. The solubility (mole fraction) (in n-propanol, 291.25 K) was 0.00216, the solubility (mole fraction) (in n-propanol, 296.35 K) was 0.00274 and the solubility (mole fraction) (in n-propanol, 301.35 K) was 0.00325. For the same compound, the solubility (mole fraction) (in n-propanol, 306.35 K) was 0.00366, the solubility (mole fraction) (in n-propanol, 311.65 K) was 0.00417 and the solubility (mole fraction) (in n-propanol, 316.55 K) was 0.00482. For the same compound, the solubility (mole fraction) (in n-propanol, 321.55 K) was 0.00531, the solubility (mole fraction) (in n-propanol, 326.45 K) was 0.00585 and the solubility (mole fraction) (in n-propanol, 331.45 K) was 0.00643. The solubility (mole fraction) (in toluene, 290.15 K) was 0.000169, the solubility (mole fraction) (in toluene, 295.15 K) was 0.000217 and the solubility (mole fraction) (in toluene, 299.15 K) was 0.000261. It also gave a solubility (mole fraction) (in toluene, 302.15 K) of 0.000294, a solubility (mole fraction) (in toluene, 305.15 K) of 0.000329 and a solubility (mole fraction) (in toluene, 308.15 K) of 0.000368. The solubility (mole fraction) (in toluene, 311.15 K) was 0.000404, the solubility (mole fraction) (in toluene, 314.15 K) was 0.000444 and the solubility (mole fraction) (in toluene, 317.15 K) was 0.000479. The solubility (mole fraction) (in toluene, 320.15 K) was 0.000515, the solubility (mole fraction) (in toluene, 325.15 K) was 0.000573 and the solubility (mole fraction) (in toluene, 330.15 K) was 0.000623.
